Experimental findings from ChEMBL document CHEMBL1201862, “PubChem BioAssay data set” (2004) are described below.

Among the test systems are K562; KM12; OVCAR-4; HCT-116; UACC-257; SF-295; T47D; OVCAR-8; SK-OV-3; HT-29; SK-MEL-28; SN12C; LOX IMVI; Hs-578T; NCI-H226; M14; HOP-62; DU-145; MDA-MB-231; TK-10.
What all share (test): NCI-60 cell line screen, 48 h

Each structure is given as a SMILES string.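 Five compound concentrations were applied to cells in 96-well plates for 48 hours; endpoints were derived by simple linear interpolation of the resulting dose-response curve. The concentration for 50% growth inhibition is given as GI50.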 The source made the active and inactive calls. No stated cut-off is given here; in the data, active = GI50 up to about 1.1 µM and inactive = higher.

`CN1CCN(c2ccc3nc(C4=C(O)C(=O)c5c(nc(CCl)n5C)C4=O)[nH]c3n2)CC1`: the GI50 in the experiment on K562 is 24.2 µM (inactive); in the experiment with KM12, 9.71 µM (inactive); in the experiment with OVCAR-4, 15.7 µM (inactive); with HCT-116, 8.85 µM (inactive); in the experiment with UACC-257, 12.4 µM (inactive); in the experiment on SF-295, 16.7 µM (inactive). Besides, the GI50 with T47D is 0.796 µM (active); with OVCAR-8, 8.05 µM (inactive); with SK-OV-3, 10.5 µM (inactive); in the experiment on HT-29 it was 11.6 µM (inactive); with SK-MEL-28, 19.3 µM (inactive); in the experiment on SN12C it was 9.98 µM (inactive). The GI50 was 8.15 µM (inactive) with LOX IMVI; 18.7 µM (inactive) with Hs-578T; 14.7 µM (inactive) in the experiment with NCI-H226; 9.4 µM (inactive) in the experiment on M14; 9.51 µM (inactive) with HOP-62; 10.1 µM (inactive) in the experiment on DU-145. Also, the GI50 with MDA-MB-231 is 10.9 µM (inactive).

Take `CC(=O)Oc1ccn2nc(C)c(Br)c2c1`: the GI50 with K562 was 39.2 µM (inactive); in the experiment on KM12 it was > 100 µM (inactive); in the experiment with OVCAR-4 it was > 100 µM (inactive); with HCT-116 it was > 100 µM (inactive); with UACC-257, 36.2 µM (inactive); in the experiment on SF-295, > 100 µM (inactive). The GI50 in the experiment with T47D was 99.1 µM (inactive); in the experiment on OVCAR-8, > 64.4 µM (inactive); with HT-29, 53.3 µM (inactive); in the experiment on SK-MEL-28 it was > 100 µM (inactive); in the experiment with TK-10, > 100 µM (inactive); in the experiment with SN12C it was > 100 µM (inactive). For the same compound, the GI50 was 34 µM (inactive) in the experiment on LOX IMVI; > 100 µM (inactive) in the experiment on Hs-578T; > 100 µM (inactive) with NCI-H226; > 100 µM (inactive) in the experiment with M14; > 67.1 µM (inactive) in the experiment with HOP-62; > 100 µM (inactive) with DU-145. Also, in the experiment on MDA-MB-231, the GI50 is > 81.3 µM (inactive).

Regarding `C[C@H]1S[C@H](c2c(F)cccc2F)n2c1nc1ccccc12`, the GI50 is 35.3 µM (inactive) with K562; 86.5 µM (inactive) in the experiment on KM12; 45.5 µM (inactive) with OVCAR-4; 34.6 µM (inactive) with HCT-116; 50.2 µM (inactive) in the experiment on UACC-257; 39.1 µM (inactive) in the experiment on SF-295. Besides, the GI50 in the experiment on T47D is 29.2 µM (inactive); with OVCAR-8 it was 69 µM (inactive); in the experiment on SK-OV-3 it was 38.4 µM (inactive); in the experiment with HT-29, 47.3 µM (inactive); in the experiment on SK-MEL-28, 71.3 µM (inactive); in the experiment on TK-10, > 100 µM (inactive). Further, the GI50 was 74.1 µM (inactive) with SN12C; 88.7 µM (inactive) with Hs-578T; > 100 µM (inactive) in the experiment with NCI-H226; 38.5 µM (inactive) in the experiment on M14; > 100 µM (inactive) with HOP-62; > 100 µM (inactive) in the experiment on DU-145. Besides, in the experiment on MDA-MB-231, the GI50 was 68.7 µM (inactive).

On to `C[C@H](CSC(=O)c1ccccc1)C(=O)N1c2ccccc2C[C@H]1C(=O)O`, for which the GI50 is 17.5 µM (inactive) in the experiment on K562; > 10 µM (inactive) with KM12; > 100 µM (inactive) with OVCAR-4; 41.2 µM (inactive) in the experiment on HCT-116; > 100 µM (inactive) in the experiment with UACC-257; > 100 µM (inactive) with SF-295. Also, the GI50 is > 100 µM (inactive) with T47D; > 100 µM (inactive) in the experiment on OVCAR-8; > 100 µM (inactive) with SK-OV-3; 47.2 µM (inactive) in the experiment on HT-29; > 100 µM (inactive) in the experiment on SK-MEL-28; > 100 µM (inactive) in the experiment with TK-10. Further, the GI50 in the experiment on SN12C, in the experiment with Hs-578T, in the experiment with NCI-H226, in the experiment on HOP-62, in the experiment with DU-145 and in the experiment on MDA-MB-231 was > 100 µM (inactive) each time.

Turning to `O=C1N2CCN=C2c2ccccc2C1(O)c1ccccc1` (centres undefined), the GI50 with K562, with KM12, in the experiment on OVCAR-4, in the experiment on HCT-116, in the experiment with UACC-257 and in the experiment with SF-295 was > 100 µM (inactive) throughout. Also, the GI50 in the experiment on T47D, with OVCAR-8, with HT-29, with SK-MEL-28, in the experiment with TK-10 and in the experiment on SN12C was > 100 µM (inactive) each time. Moreover, the GI50 in the experiment on LOX IMVI, with Hs-578T, with NCI-H226, in the experiment with M14, with HOP-62 and with DU-145 was > 100 µM (inactive) in each case. In addition, in the experiment on MDA-MB-231, the GI50 is > 100 µM (inactive).

Turning to `C(=C/c1nnnn1-c1ccccc1)/Nc1ccccc1`, the GI50 in the experiment with K562 is 20.7 µM (inactive); in the experiment on KM12 it was 31.6 µM (inactive); with HCT-116, 31.9 µM (inactive); with UACC-257, 36.5 µM (inactive); in the experiment on SF-295, 26.2 µM (inactive); in the experiment on T47D it was 29.6 µM (inactive). In addition, the GI50 is 29.5 µM (inactive) with OVCAR-8; 36.2 µM (inactive) in the experiment with SK-OV-3; 28.2 µM (inactive) in the experiment on HT-29; 78.7 µM (inactive) in the experiment on SK-MEL-28; 34.4 µM (inactive) in the experiment on TK-10; 30.8 µM (inactive) with SN12C. Besides, the GI50 with LOX IMVI is 28.1 µM (inactive); with Hs-578T, 31.8 µM (inactive); in the experiment on NCI-H226 it was 19.1 µM (inactive); in the experiment on M14, 26.1 µM (inactive); in the experiment with HOP-62, 25.4 µM (inactive); in the experiment with DU-145, 24.7 µM (inactive). The GI50 in the experiment with MDA-MB-231 is 39 µM (inactive).

Take `CC1CC(Nc2ccc(Br)cc2)N(C(=O)c2ccc(Br)cc2)O1` (centres undefined): the GI50 was 0.435 µM (active) in the experiment on K562; > 10 µM (inactive) with OVCAR-4; 4.42 µM (inactive) in the experiment on HCT-116; 4.46 µM (inactive) with UACC-257; 2.42 µM (inactive) with SF-295; 9.77 µM (inactive) in the experiment with T47D. Besides, the GI50 was 7.4 µM (inactive) in the experiment with OVCAR-8; > 10 µM (inactive) in the experiment on SK-OV-3; 1.73 µM (inactive) in the experiment on HT-29; > 10 µM (inactive) in the experiment on SK-MEL-28; > 10 µM (inactive) in the experiment on TK-10; 2.75 µM (inactive) in the experiment with SN12C. For the same compound, the GI50 is 8.3 µM (inactive) in the experiment on Hs-578T; > 10 µM (inactive) with NCI-H226; > 10 µM (inactive) in the experiment with M14; 6.49 µM (inactive) in the experiment on HOP-62; 2.62 µM (inactive) in the experiment with DU-145; > 10 µM (inactive) with MDA-MB-231.

As for `N#Cc1cc2c(n(C3OC(CO)C(O)C(O)C3O)c1=S)CCCCCC2` (centres undefined), the GI50 with K562, with KM12, in the experiment with OVCAR-4, in the experiment on HCT-116, in the experiment on UACC-257 and in the experiment with SF-295 was > 100 µM (inactive) each time. Moreover, the GI50 with T47D was 80.2 µM (inactive); with OVCAR-8, > 100 µM (inactive); in the experiment on HT-29 it was > 100 µM (inactive); with SK-MEL-28 it was > 100 µM (inactive); in the experiment with TK-10, > 100 µM (inactive); with SN12C, > 100 µM (inactive). Further, the GI50 in the experiment with LOX IMVI, in the experiment on Hs-578T, with NCI-H226, in the experiment with M14, in the experiment with HOP-62 and in the experiment on DU-145 was > 100 µM (inactive) in each case. In the experiment on MDA-MB-231, the GI50 is > 100 µM (inactive).

For the compound `CC1(C)CCc2c(cc3c(c2O)CCC(C)(C)O3)O1`, the GI50 is 48.8 µM (inactive) in the experiment with K562; > 100 µM (inactive) in the experiment with KM12; > 100 µM (inactive) with OVCAR-4; 61.2 µM (inactive) in the experiment on HCT-116; > 100 µM (inactive) in the experiment with UACC-257; 96.8 µM (inactive) with SF-295. Moreover, the GI50 with T47D is 41.8 µM (inactive); in the experiment on OVCAR-8 it was > 100 µM (inactive); in the experiment with SK-OV-3, > 100 µM (inactive); with HT-29, 35.8 µM (inactive); in the experiment with SK-MEL-28, > 100 µM (inactive); with TK-10, > 100 µM (inactive). In addition, the GI50 in the experiment with SN12C, with Hs-578T, in the experiment with NCI-H226, in the experiment with M14, in the experiment with HOP-62 and in the experiment with DU-145 was > 100 µM (inactive) throughout. Moreover, the GI50 with MDA-MB-231 was > 100 µM (inactive).

On to `COc1ccc(/C=N/n2c(-c3ccccc3)n[nH]c2=O)cc1`, for which the GI50 with K562 is > 100 µM (inactive); in the experiment on KM12, 48.8 µM (inactive); in the experiment on OVCAR-4, 53.8 µM (inactive); in the experiment with HCT-116, 74.5 µM (inactive); in the experiment with UACC-257, > 100 µM (inactive); in the experiment with SF-295, > 100 µM (inactive). In addition, the GI50 in the experiment on T47D, in the experiment with OVCAR-8, in the experiment with SK-OV-3, in the experiment with HT-29, in the experiment on SK-MEL-28 and in the experiment with SN12C was > 100 µM (inactive) each time. In addition, the GI50 in the experiment with Hs-578T is 50.1 µM (inactive); in the experiment with NCI-H226, > 100 µM (inactive); in the experiment with M14, > 100 µM (inactive); in the experiment with HOP-62, > 100 µM (inactive); in the experiment on DU-145, > 100 µM (inactive); in the experiment with MDA-MB-231 it was > 100 µM (inactive).

In the case of `CC(C)[Si](OC1=C(c2ccccc2)C(NC(=O)/C=C/c2ccc([N+](=O)[O-])cc2)CCC1)(C(C)C)C(C)C` (centres undefined), the GI50 in the experiment with K562, in the experiment on KM12, with HCT-116, in the experiment with UACC-257, with SF-295 and in the experiment with T47D was > 100 µM (inactive) in each case. The GI50 with OVCAR-8, with SK-OV-3, in the experiment with HT-29, in the experiment on TK-10, in the experiment on LOX IMVI and in the experiment on Hs-578T was > 100 µM (inactive) each time. For the same compound, the GI50 with NCI-H226, with M14, in the experiment on HOP-62, in the experiment with DU-145 and with MDA-MB-231 was > 100 µM (inactive) throughout.
